Source: the supplement of paper PMC10307832

What was measured:
Test in all cases: relative viability (nuclei count vs DMSO), 5 days (fraction); higher = more cells survive
IU1-47 + Tozasertib = compound: CC1=CC(=C(N1C2=CC=C(C=C2)Cl)C)C(=O)CN3CCCCC3 [IU1-47] + Cc1cc(Nc2cc(N3CCN(C)CC3)nc(Sc3ccc(NC(=O)C4CC4)cc3)n2)n[nH]1 [Tozasertib] (partner 0.1 µM)
Method in brief: (§1)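 Lung cancer cell lines were pin-tool dosed in 1536-well plates on the day after seeding, with either a lone drug or a fixed anchor-drug dose plus five library-drug doses (not always all listed) in √10 steps. Nuclei were counted on 4× images after 5 days. Relative viability is the ratio of treated-well to vehicle-well nuclei counts, with each value a median of duplicate plates.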

FG-4592 + Crizotinib = compound: Cc1nc(C(=O)NCC(=O)O)c(O)c2ccc(Oc3ccccc3)cc12 [FG-4592] + C[C@@H](Oc1cc(-c2cnn(C3CCNCC3)c2)cnc1N)c1c(Cl)ccc(F)c1Cl [Crizotinib] (partner 1 µM)
Method in brief: as §1

FG-4592 + Pemetrexed = compound: Cc1nc(C(=O)NCC(=O)O)c(O)c2ccc(Oc3ccccc3)cc12 [FG-4592] + Nc1nc2[nH]cc(CCc3ccc(C(=O)N[C@@H](CCC(=O)O)C(=O)O)cc3)c2c(=O)[nH]1 [Pemetrexed] (partner 0.2 µM)
Method in brief: as §1

FG-4592 + Navitoclax = compound: Cc1nc(C(=O)NCC(=O)O)c(O)c2ccc(Oc3ccccc3)cc12 [FG-4592] + CC1(C)CCC(c2ccc(Cl)cc2)=C(CN2CCN(c3ccc(C(=O)NS(=O)(=O)c4ccc(N[C@H](CCN5CCOCC5)CSc5ccccc5)c(S(=O)(=O)C(F)(F)F)c4)cc3)CC2)C1 [Navitoclax] (partner 0.5 µM)
Method in brief: as §1

Cell Line	relative viability (IU1-47 + Tozasertib; first compound 0.08 µM)	relative viability (IU1-47 + Tozasertib; first compound 0.253 µM)	relative viability (IU1-47 + Tozasertib; first compound 0.8 µM)	relative viability (IU1-47 + Tozasertib; first compound 2.53 µM)	relative viability (IU1-47 + Tozasertib; first compound 8 µM)	relative viability (FG-4592 + Crizotinib; first compound 0.08 µM)	relative viability (FG-4592 + Crizotinib; first compound 0.253 µM)	relative viability (FG-4592 + Crizotinib; first compound 0.8 µM)	relative viability (FG-4592 + Crizotinib; first compound 2.53 µM)	relative viability (FG-4592 + Crizotinib; first compound 8 µM)	relative viability (FG-4592 + Pemetrexed; first compound 0.08 µM)	relative viability (FG-4592 + Pemetrexed; first compound 0.253 µM)	relative viability (FG-4592 + Pemetrexed; first compound 0.8 µM)	relative viability (FG-4592 + Pemetrexed; first compound 2.53 µM)	relative viability (FG-4592 + Pemetrexed; first compound 8 µM)	relative viability (FG-4592 + Navitoclax; first compound 0.08 µM)	relative viability (FG-4592 + Navitoclax; first compound 0.253 µM)	relative viability (FG-4592 + Navitoclax; first compound 0.8 µM)	relative viability (FG-4592 + Navitoclax; first compound 2.53 µM)	relative viability (FG-4592 + Navitoclax; first compound 8 µM)
HCC-44	1.13	1.16	0.968	0.995	1.22	0.754	0.798	0.878	0.805	0.82	0.615	0.652	0.705	0.688	0.725	1.01	0.935	0.997	1.11	1.03
HCC-827	0.458	0.424	0.449	0.409	0.383	0.92	0.892	0.923	1.02	0.869	0.232	0.255	0.235	0.26	0.255	1.03	1.01	0.992	1.02	1.09
NCI-H1623	0.494	0.43	0.428	0.451	0.428	–	–	–	–	–	–	–	–	–	–	–	–	–	–	–
NCI-H2347	0.561	0.518	0.632	0.51	0.445	0.668	–	0.58	0.724	0.874	0.411	0.417	0.439	0.425	0.478	0.862	–	0.648	0.804	0.897
PC-14	0.707	0.685	0.661	–	0.581	0.893	0.863	1.02	0.961	0.922	0.128	0.138	0.129	0.131	0.148	1.01	1.06	1.08	1.01	1.03
NCI-H1651	0.717	0.58	0.753	0.72	0.762	0.89	0.799	0.829	0.863	0.862	0.591	0.57	0.583	0.588	0.508	1.13	0.946	1.08	1.18	0.833
HARA	0.0876	0.0862	0.0879	–	0.0969	1.06	0.967	–	1	0.977	–	–	–	0.251	0.24	1.15	1.09	–	1.13	1.15
NCI-H1650	0.399	0.489	0.363	0.382	0.264	1.14	0.826	1.21	1.05	1.02	0.388	0.346	0.409	0.362	0.344	1.23	1.12	1.37	1.17	1.24
NCI-H1395	0.739	0.692	0.835	0.8	0.718	–	–	–	–	–	0.877	0.859	0.528	0.768	0.671	1.37	1.01	–	1.02	0.958
LU99A	0.283	0.266	0.282	0.314	0.231	0.534	0.523	0.543	0.558	0.58	0.184	0.199	–	0.182	0.199	0.869	0.709	0.75	0.832	0.718
NCI-H1355	0.483	0.606	0.506	–	0.546	1.05	1.02	–	1.07	0.944	1.07	0.942	–	1.03	1.05	1.08	0.94	–	0.901	0.862
HCC-78	0.37	0.508	0.479	0.372	0.404	0.312	0.332	0.269	0.31	0.337	0.941	–	0.901	0.871	0.909	0.904	0.766	0.442	0.773	0.806
NCI-H1563	–	–	–	–	–	0.893	0.888	0.91	0.889	0.804	0.628	0.732	0.6	0.759	0.715	–	–	–	–	–
HCC-15	0.385	0.432	0.354	–	0.227	0.819	0.712	0.808	0.866	0.875	0.21	0.235	0.22	0.221	0.232	0.758	0.698	0.686	0.714	0.744
EKVX	0.418	0.433	0.367	0.341	0.349	1.08	0.816	1.23	0.977	1.02	0.346	0.36	0.376	0.377	0.515	0.848	0.813	0.855	1.09	1.04
NCI-H2087	0.225	0.224	0.287	–	0.241	0.722	0.648	1.01	0.997	0.896	0.604	0.565	0.658	–	0.591	1.01	0.946	1.04	0.98	1.03
LK-2	0.163	0.168	0.155	0.168	0.166	–	0.23	–	0.279	0.216	0.26	0.277	–	0.239	0.268	0.87	0.771	0.734	0.836	0.674
NCI-H1437	0.413	0.396	0.396	0.398	0.347	0.95	0.911	1.03	0.936	0.879	0.32	0.31	0.349	0.32	0.274	1.07	1.09	1.16	1.01	0.852
COR-L23	0.184	0.183	0.206	0.207	0.18	0.574	0.571	0.833	0.679	0.638	0.205	0.204	0.171	0.194	0.187	0.924	0.98	1.14	0.909	0.932

Cell Line	relative viability (IU1-47 + Tozasertib; first compound 0.08 µM)	relative viability (IU1-47 + Tozasertib; first compound 0.253 µM)	relative viability (IU1-47 + Tozasertib; first compound 0.8 µM)	relative viability (IU1-47 + Tozasertib; first compound 2.53 µM)	relative viability (IU1-47 + Tozasertib; first compound 8 µM)	relative viability (FG-4592 + Crizotinib; first compound 0.08 µM)	relative viability (FG-4592 + Crizotinib; first compound 0.253 µM)	relative viability (FG-4592 + Crizotinib; first compound 0.8 µM)	relative viability (FG-4592 + Crizotinib; first compound 2.53 µM)	relative viability (FG-4592 + Crizotinib; first compound 8 µM)	relative viability (FG-4592 + Pemetrexed; first compound 0.08 µM)	relative viability (FG-4592 + Pemetrexed; first compound 0.253 µM)	relative viability (FG-4592 + Pemetrexed; first compound 0.8 µM)	relative viability (FG-4592 + Pemetrexed; first compound 2.53 µM)	relative viability (FG-4592 + Pemetrexed; first compound 8 µM)	relative viability (FG-4592 + Navitoclax; first compound 0.08 µM)	relative viability (FG-4592 + Navitoclax; first compound 0.253 µM)	relative viability (FG-4592 + Navitoclax; first compound 0.8 µM)	relative viability (FG-4592 + Navitoclax; first compound 2.53 µM)	relative viability (FG-4592 + Navitoclax; first compound 8 µM)
ABC-1	0.188	0.165	0.158	–	0.193	1.28	–	1.64	1.18	1.13	–	–	–	–	–	–	–	–	–	–
SW 900	0.512	0.54	0.615	0.439	0.469	–	–	–	–	–	–	0.48	–	0.493	0.487	–	–	–	–	–
NCI-H1648	0.518	0.569	0.476	0.338	0.43	–	–	–	–	–	0.753	0.786	–	0.595	1.12	–	–	–	–	–
A549	–	–	–	–	–	0.631	0.736	0.87	0.831	0.826	–	–	–	–	–	1.25	1.21	1.27	1.28	1.08
NCI-H1792	–	–	–	–	–	0.96	0.764	0.812	1.01	0.975	0.691	0.76	–	0.619	0.651	0.619	0.554	0.575	0.611	0.644
NCI-H1703	–	–	–	–	–	0.591	0.572	0.702	0.44	0.733	–	–	–	–	–	1.01	0.862	1.16	1.13	1.02
LCLC-103H	0.576	0.586	0.531	0.503	0.451	0.884	0.977	1.01	0.994	1.05	0.435	0.456	0.51	0.478	0.457	–	–	–	–	–
Calu-6	–	–	–	–	–	0.753	0.811	0.855	0.832	0.707	–	–	–	–	–	0.795	0.734	0.974	0.914	0.87
NCI-H358	0.089	0.103	0.0989	0.0928	0.0979	0.531	0.602	0.703	0.704	0.594	0.169	0.165	0.164	0.176	0.179	–	–	–	–	–
NCI-H2342	0.493	0.608	0.602	0.512	0.594	–	–	–	–	–	0.682	0.767	0.77	0.8	0.738	–	–	–	–	–
EBC-1	–	–	–	–	–	0.189	0.186	0.178	0.19	0.222	–	–	–	–	–	0.469	0.389	0.425	0.493	0.397
NCI-H1299	–	–	–	–	–	0.953	0.903	0.976	0.93	0.989	–	–	–	–	–	1.07	1.03	1.02	1.02	1.1
NCI-H522	0.52	0.523	0.516	0.489	0.519	–	–	–	–	–	1.11	0.878	–	0.728	0.869	–	–	–	–	–
IA-LM	–	–	–	–	–	0.766	0.824	0.805	0.644	0.76	–	–	–	–	–	0.785	0.707	0.899	0.481	0.397
NCI-H727	0.655	0.562	0.589	0.58	0.568	0.776	0.827	0.913	1.1	0.83	–	–	–	–	–	0.537	0.403	0.413	0.63	0.525
NCI-H650	0.759	0.824	0.751	0.779	0.698	0.598	0.648	0.756	0.654	0.61	0.978	0.871	0.848	0.812	0.726	–	–	–	–	–
NCI-H661	0.354	0.373	0.355	0.358	0.375	–	–	1.29	1.04	1.1	0.904	0.903	0.944	0.894	1.02	–	–	–	–	–
NCI-H1793	0.346	0.319	0.296	–	0.299	–	–	–	–	–	–	0.95	–	0.833	0.782	0.335	0.384	–	0.291	0.238
